The target of this assay is 15-PGDH/HPGD (Homo sapiens (Human), UniProt P15428). As to the kind of experiment: hPGDH inhibitor screening biochemical assay. A digest of the protocol: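 10 nM recombinant 15-PGDH was preincubated with compound (10-point) for 10 min at 37° C. in 50 mM Tris-HCl pH 7.5, 0.01% Tween 20. Then 15 μM PGE2 and 0.25 mM NAD+ were added for 10 min at rt. NADH fluorescence (ex/em 340/485 nm) gave % inhibition versus 1% DMSO and a four-parameter IC50.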

The mark [1] stands for this setting: 10 nM 15-PGDH/HPGD, 15 μM PGE2, 0.25 mM NAD, read-out: hPGDH: Average IC50.
Setting [2] is: Table 1, PGDH inhibitors with a 6-5 ring core, read-out: hPGDH: IC50.

Molecules are shown by their SMILES. Read-outs that look alike come from different tables or passages of the source. Bounds are passed on as bounds.

15-PGDH/HPGD, sequence (P15428 whole entry): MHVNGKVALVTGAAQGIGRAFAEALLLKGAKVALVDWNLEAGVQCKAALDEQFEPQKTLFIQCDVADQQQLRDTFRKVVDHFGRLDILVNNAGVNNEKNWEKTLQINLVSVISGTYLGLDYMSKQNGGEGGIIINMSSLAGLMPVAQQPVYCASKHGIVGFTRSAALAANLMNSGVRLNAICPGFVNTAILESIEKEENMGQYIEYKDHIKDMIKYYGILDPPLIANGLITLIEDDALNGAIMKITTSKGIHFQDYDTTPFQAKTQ

With `Cc1cncc(-n2cc(Cl)c3cc(C(=O)N4CCC(F)CC4)cnc32)n1` [A-296, (3-chloro-1-(6-methylpyrazin-2-yl)-1H-pyrrolo[2,3-b]pyridin-5-yl)(4-fluoropiperidin-1-yl)methanone], the IC50 under setting [1] is below 0.1 µM.
The same measure, in the same setting: as for `O=C(c1cnc2c(ccn2-c2ccc3c(c2)OCO3)c1)N1CCC(F)CC1` [A-298], the figure is below 0.1 µM.
On the same count and under the same terms, as for `COc1ccc(-n2c(C)nc3cc(C(=O)N4CCC(F)CC4)ccc32)cc1` [A-303], the figure is below 0.1 µM; as for `COc1ccc(-n2ccc3cc(C(=O)N4CCC(F)CC4)ccc32)cc1` [A-304], below 0.1 µM; as for `COc1ccc(-n2cc(C)c3cc(C(=O)N4CCC(F)CC4)ccc32)cc1` [A-305, (4-fluoropiperidin-1-yl)(1-(4-methoxyphenyl)-3-methyl-1H-indol-5-yl)methanone], below 0.1 µM.
For `CCc1nc2cc(C(=O)N3CCC(F)CC3)ccc2n1-c1ccc(OC)cc1` [A-306], the IC50 under setting [1] was below 0.1 µM.
Still for that read-out and setting: as for `COc1cccc(-c2cn(C)c3cc(C(=O)N4CCC(F)CC4)cnc23)c1` [A-307, (4-fluoropiperidin-1-yl)(3-(3-methoxyphenyl)-1-methyl-1H-pyrrolo[3,2-b]pyridin-6-yl)methanone], the figure is 0.1 to 1 µM; as for `COc1ccccc1-c1cn(C)c2cc(C(=O)N3CCC(F)CC3)cnc12` [A-308, (4-fluoropiperidin-1-yl)(3-(2-methoxyphenyl)-1-methyl-1H-pyrrolo[3,2-b]pyridin-6-yl)methanone], at least 1 µM; as for `COc1ccc(-n2c(C)nc3cc(C(=O)N4CCCCC4)ccc32)cc1` [A-310], below 0.1 µM.
Same read-out and setting: as for `CCC(CC)n1cnc2cc(C(=O)N3CCCCC3)ccc21` [A-311], the figure is below 0.1 µM; as for `COc1ccc(-n2nnc3cc(C(=O)N4CCC(F)CC4)ccc32)cc1` [A-312, (4-fluoropiperidin-1-yl)(1-(4-methoxyphenyl)-1H-benzo[d][1,2,3]triazol-5-yl)methanone], below 0.1 µM.
On the same count and under the same terms, as for `COc1ccc(-n2nnc3cc(C(=O)N4CCCCC4)ccc32)cc1` [A-313, (1-(4-methoxyphenyl)-1H-benzo[d][1,2,3]triazol-5-yl)(piperidin-1-yl)methanone], the figure is below 0.1 µM.
Take `O=C(c1cnc2c(ccn2-c2ccc3c(c2)OC(F)(F)O3)c1)N1CCCCC1` [A-317]: the IC50 under setting [1] is below 0.1 µM.
The same measure, in the same setting: as for `O=C(c1cnc2c(ccn2C2CCC(F)(F)CC2)c1)N1CCCCC1` [A-320], the figure is at least 1 µM; as for `COc1ccc(-n2ccc3c(C)c(C(=O)N4CCCCC4)cnc32)cc1` [A-321], below 0.1 µM; as for `COc1ccc(-n2ccc3c(C#N)c(C(=O)N4CCCCC4)cnc32)cc1` [A-323, 1-(4-methoxyphenyl)-5-(piperidine-1-carbonyl)-1H-pyrrolo[2,3-b]pyridine-4-carbonitrile], below 0.1 µM.
Still for that read-out and setting: as for `COc1ccc(-n2ccc3c(N)c(C(=O)N4CCCCC4)cnc32)cc1` [A-324, (4-amino-1-(4-methoxyphenyl)-1H-pyrrolo[2,3-b]pyridin-5-yl)(piperidin-1-yl)methanone], the figure is below 0.1 µM; as for `O=C(c1ccc2c(cnn2-c2cncc(Cl)c2)c1)N1CCCCC1` [A-325], below 0.1 µM.
As for `COc1ccc(-n2c(CCC(C)(C)O)cc3cc(C(=O)N4CCCCC4)cnc32)cc1` [A-326, (2-(3-hydroxy-3-methylbutyl)-1-(4-methoxyphenyl)-1H-pyrrolo[2,3-b]pyridin-5-yl)(piperidin-1-yl)methanone], the IC50 under setting [1] is below 0.1 µM.
Regarding `CN(C)c1ccc(-n2ccc3cc(C(=O)N4CCC(F)CC4)cnc32)cc1` [A-327], the IC50 under setting [1] is below 0.1 µM.
Same read-out and setting: as for `O=C(c1cnc2c(ccn2-c2cncc(-c3n[nH]c(C4CC4)n3)c2)c1)N1CCC(F)(F)CC1` [A-332, (1-(5-(5-cyclopropyl-1H-1,2,4-triazol-3-yl)pyridin-3-yl)-1H-pyrrolo[2,3-b]pyridin-5-yl)(4,4-difluoropiperidin-1-yl)methanone], the figure is below 0.1 µM; as for `O=C(c1cnc2c(ccn2-c2ccc(-c3n[nH]c(C4CC4)n3)nc2)c1)N1CCC(F)(F)CC1` [A-333, (1-(6-(5-cyclopropyl-1H-1,2,4-triazol-3-yl)pyridin-3-yl)-1H-pyrrolo[2,3-b]pyridin-5-yl)(4,4-difluoropiperidin-1-yl)methanone], below 0.1 µM.
Same read-out and setting: as for `O=C(c1cnc2c(ccn2-c2ccc(-c3nnc(C(F)(F)F)[nH]3)nc2)c1)N1CCC(F)(F)CC1` [A-334, (4,4-Difluoropiperidin-1-yl)(1-(6-(5-(trifluoromethyl)-4H-1,2,4-triazol-3-yl)pyridin-3-yl)-1H-pyrrolo[2,3-b]pyridin-5-yl)methanone], the figure is below 0.1 µM; as for `CC(C)(C)c1ccc(NC(=O)c2cncc(-n3ccc4cc(C(=O)N5CCC(F)(F)CC5)cnc43)c2)cn1` [A-335, N-(6-(tert-butyl)pyridin-3-yl)-5-(5-(4,4-difluoropiperidine-1-carbonyl)-1H-pyrrolo[2,3-b]pyridin-1-yl)nicotinamide], below 0.1 µM; as for `CC(C)(O)CCc1cc2cc(C(=O)N3CCC(F)(F)CC3)cnc2n1-c1ccc(C(=O)O)cc1` [A-336, 4-(5-(4,4-difluoropiperidine-1-carbonyl)-2-(3-hydroxy-3-methylbutyl)-1H-pyrrolo[2,3-b]pyridin-1-yl)benzoic acid], below 0.1 µM.
On the same count and under the same terms, as for `Cc1nc(-c2ccc(-n3c(CCC(C)(C)O)cc4cc(C(=O)N5CCC(F)(F)CC5)cnc43)cc2)no1` [A-337, (4,4-difluoropiperidin-1-yl)(2-(3-hydroxy-3-methylbutyl)-1-(4-(5-methyl-1,2,4-oxadiazol-3-yl)phenyl)-1H-pyrrolo[2,3-b]pyridin-5-yl)methanone], the figure is below 0.1 µM.
On to `C[C@H]1CCCN(C(=O)c2cnc3c(ccn3-c3ccc(C(=O)O)cc3)c2)C1` [A-339, (S)-4-(5-(3-methylpiperidine-1-carbonyl)-1H-pyrrolo[2,3-b]pyridin-1-yl)benzoic acid], for which, under setting [1], the IC50 was below 0.1 µM.
Turning to `COCCc1nc2cc(C(=O)N3CCC(F)CC3)cnc2n1-c1ccc(OC)cc1` [A-342], the IC50 under setting [1] was at least 1 µM.
The same measure, in the same setting: as for `NC(=O)c1cncc(-n2ccc3cc(C(=O)N4CCC(F)CC4)cnc32)c1` [A-346], the figure is below 0.1 µM.
The same measure, in the same setting: as for `NC(=O)c1ccc(-n2ccc3cc(C(=O)N4CCC(F)CC4)cnc32)cn1` [A-347], the figure is below 0.1 µM.
Same read-out and setting: as for `NC(=O)c1cncc(-n2ccc3cc(C(=O)N4CCCCC4)cnc32)c1` [A-348], the figure is below 0.1 µM; as for `CNC(=O)c1cncc(-n2ccc3cc(C(=O)N4CCCCC4)cnc32)c1` [A-349], below 0.1 µM; as for `CN(C)C(=O)c1cncc(-n2ccc3cc(C(=O)N4CCCCC4)cnc32)c1` [A-350], below 0.1 µM.
`N#Cc1cncc(-n2ccc3cc(C(=O)N4CCCCC4)cnc32)c1` [A-351]: the IC50 under setting [1] was below 0.1 µM.
Turning to `COc1ccc(-n2cnc3cc(C(=O)N4CCC(F)(F)CC4)cnc32)cc1` [drawing 78], the IC50 under setting [2] was determined as 0.0574 µM.
In the case of `COc1ccc(-n2cnc3cc(C(=O)N4CCC(F)CC4)cnc32)cc1` [drawing 79], the IC50 under setting [2] amounted to 0.0195 µM.
Consider `COc1ccc(-n2cnc3cc(C(=O)N4CCCCC4)cnc32)cc1` [drawing 80], for which the IC50 under setting [2] worked out at 0.0201 µM.
The same measure, in the same setting: as for `O=C(c1cnc2c(ccn2-c2cnccn2)c1)N1CCCCC1` [drawing 81], the figure is 0.0006 µM.
As to `O=C(c1ccc2c(c1)ncn2-c1ccc(O)c(Cl)c1)N1CCCCC1` [drawing 82], the IC50 under setting [2] is 0.0025 µM.
Regarding `O=C(c1ccc2c(c1)ncn2-c1cccc(Cl)c1)N1CCC(F)(F)C1` [drawing 83], the IC50 under setting [2] came to 1.26 µM.
As to `O=C(c1ccc2c(c1)ncn2-c1cccc(Cl)c1)N1CCC(O)C1` (centres unmarked) [drawing 84], the IC50 under setting [2] turned out to be 2.87 µM.
As to `NC(=O)CCc1nc2cc(C(=O)N3CCCCC3)ccc2n1-c1cccc(Cl)c1` [drawing 85], under setting [2], the IC50 is 0.0449 µM.
As for `O=C1CCN(C(=O)c2ccc3c(c2)ncn3-c2cccc(Cl)c2)C1` [drawing 88], the IC50 under setting [2] is 4.54 µM.
On the same count and under the same terms, as for `Cc1nc2cc(C(=O)N3CCCCC3)ccc2n1-c1cccc(Cl)c1` [drawing 89], the figure is 0.0056 µM.
The same measure, in the same setting: as for `O=C(c1ccc2c(c1)ncn2-c1cccc(Cl)c1)N1CCC(Cl)C1` (centres unmarked) [drawing 90], the figure is 0.0647 µM; as for `O=C(c1ccn2c(-c3cccc(Cl)c3)cnc2c1)N1CCCCC1` [drawing 93], 0.0057 µM; as for `O=C(c1ccc2c(c1)ncn2-c1cccc(Cl)c1)N1CCC(F)(F)CC1` [drawing 96], 0.0122 µM.
Regarding `O=C(c1ccc2c(c1)ncn2-c1cccc(Cl)c1)N1CC2CCC(C2)C1` [drawing 97], the IC50 under setting [2] stood at 0.0466 µM.
Regarding `O=C(c1ccc2c(c1)ncn2-c1cccc(Cl)c1)N1CCCCC1` [drawing 98], the IC50 under setting [2] was determined as 0.0027 µM.
Same read-out and setting: as for `O=C(c1ccc2c(c1)ncn2-c1cccc(Cl)c1)N1CC2(CCC2)C1` [drawing 99], the figure is 0.0439 µM.
As for `O=C(c1ccc2c(c1)ncn2-c1cccc(Cl)c1)N1CCCCCC1` [drawing 101], the IC50 under setting [2] came out at 0.0032 µM.
As to `O=C(c1ccc2c(c1)ncn2-c1cccc(Cl)c1)N1CC2CCCC2C1` (centres unmarked) [drawing 102], under setting [2], the IC50 is 0.0249 µM.
Same read-out and setting: as for `O=C(c1ccc2c(c1)c(Cl)cn2-c1cccc(Cl)c1)N1CCCCC1` [drawing 104], the figure is 0.0106 µM.
As to `O=C(c1cnc2c(c1)ncn2-c1cccc(Cl)c1)N1CCCCC1` [drawing 106], under setting [2], the IC50 came out at 0.0128 µM.
The same measure, in the same setting: as for `O=C(c1cnc2c(-c3cccc(Cl)c3)cnn2c1)N1CCCCC1` [drawing 107], the figure is 0.0493 µM; as for `O=C(c1ccc2c(c1)nnn2-c1cccc(Cl)c1)N1CCCCC1` [drawing 108], 0.0031 µM.
On to `COc1ccc(-n2cnc3cc(C(=O)N4CCC(F)CC4)ccc32)cc1` [drawing 109], for which the IC50 under setting [2] is 0.0437 µM.
The same measure, in the same setting: as for `COc1ccc(-n2cnc3cc(C(=O)N4CCCCC4)ccc32)cc1` [drawing 110], the figure is 0.0064 µM.
Still for that read-out and setting: as for `O=C(c1ccc2c(cnn2-c2cccc(Cl)c2)c1)N1CCCCC1` [drawing 111], the figure is 0.0058 µM.

What is called IC50 is the concentration that gives 50% inhibition.

The values above are taken from patent US20230390274A1 (EPIRIUM BIO INC., priority 2020, published 2023).
